Assay results: patent US11427574B2, “Compounds for treating Rac-GTPase mediated disorder” (Children's Medical Center Corporation, priority 2015, dated 2022)

Tests used:
Tiam1-Rac complex = Tiam1-Rac complex (Homo sapiens, UniProt P63000); experiment: Homologous time resolved fluorescence (HTRF) binding assay
Procedure: Compound 1 was tested for its efficacy in binding with Rac1 in two independent binding assays, i.e., 2D NMR spectroscopy and Homologous time resolved fluorescence assay (HTRF).
In the 2D NMR assay, samples containing 50 μM Rac1 and 250 μM or 400 μM Compound 1 were used.
Compound 2 was tested for its efficacy in binding with Rac1 in two independent binding assays, i.e., 2D NMR spectroscopy and Homologous time resolved fluorescence assay (HTRF).
In the 2D NMR assay, a sample containing 50 μM Rac1 and 250 μM Compound 2 was used.

Loucy cells = experiment: Proliferation assay in Loucy leukemia cells; type: cell-based; settings: read-out: IC50, inhibition of proliferation
Procedure: Dose Dependent Inhibition of Proliferation The 100 compounds selected from the initial in silico screen were assayed for inhibition of proliferation in two leukemia cell lines, SEM and P12 by Cell Titer Glo. The cells for the proliferation assay were spun down and re-suspended. The cell suspension was then divided and the compound to be tested added in desired concentrations and subsequently plated. Following an incubation period, the Cell Titer Glo reagent (Promega CellTiter 96® Aqueous Non-Radioactive Cell Proliferation Assay) was added and allowed to incubate. The absorbance is subsequently measured at 490 nm using a plate reader. Each compound was analyzed for its effects on cell proliferation.
The lead compound, i.e. Compound 1, was analyzed for its effect on cell proliferation at various doses on three different leukemia cell lines: SEM, P12, and Loucy. In order to quantitate the percentage inhibition of cell proliferation, Cell Titer Glo analysis was completed as described in Example 2 above.
FIGS. 3a-3c show three graphs illustrating the dose dependent inhibition of proliferation of Compound 1 in SEM, P12, and Loucy cells as measured by MTS assay. […] Compound 1 was further analyzed for its effect on cell apoptosis and cell death using a flow based assay using Annexin V staining.

40 kinases = experiment: Kinase screening, whole panel; type: biochemical; settings: summary of Table 1
Procedure: Compound 1 was tested for its efficacy in inhibiting activities of 40 kinases and binding with 12 GPCRs both as an antagonist and an agonist.

[1] = test system: normal bone marrow hematopoietic and progenitor cells; experiment: Colony forming unit assay (CFU assay) for toxicity; type: cell-based; settings: semi-solid media, different doses
Procedure: Compound 1 was tested for toxicity in a colony forming unit assay (CFU assay), which was performed by plating normal bone marrow hematopoietic and progenitor cells in semi-solid media supplemented with different doses of Compound 1, NSC23766, and DMSO.
Compound 2 was also tested for toxicity in a colony forming unit assay (CFU assay), which was performed by plating normal bone marrow hematopoietic and progenitor cells in semi-solid media supplemented with different doses of Compound 2, NSC23766, and DMSO.

## CCc1ccc(CN(C)C(=O)CCc2nnc(CCc3c[nH]c4ccccc34)o2)nc1 (racemic) [Compound 1]
Tiam1-Rac complex
  binding in the HTRF assay: no binding was observed
Loucy cells
  IC50: 160 µM
40 kinases
  inhibition of the 40 kinases tested: no significant inhibition
[1]
  toxicity toward normal bone marrow cells: did not exhibit toxicity
